Test results: US8747888B2, “Dermal delivery device with in situ seal” (Agile Therapeutics, Inc., priority 2007, dated 2014)

Experiment: Control of loss of volatile components: amounts in the AI patch after storage, by gas chromatography
Type: physicochemical
Conditions: 12 wks, device with in situ seal
Experimental: A transdermal hormone delivery device was prepared comprising an internal backing layer, an AI layer, and a release liner. […] The device also comprised an overlay comprising a polyurethane […] backing, which is able to absorb large amounts of the volatile excipients, DMSO and ethyl lactate, an acrylic PSA coated onto the polyurethane foam, and a PIB PSA coated on top of the acrylic PSA. […] The release liner was a Mylar polyester film coated with a fluoropolymer release coating. […] The devices were placed in a 25° C. or 40° C. oven. After 6 weeks and 12 weeks, devices were removed from the oven and the active section of each device was separated from the overlay. […] (12 weeks exposure to 40° C. is intended to simulate 18 months exposure to room temperature (25° C.)).

For `CCCCCCCCCCCCOC(=O)C(C)O` (centres unmarked) [Lauryl Lactate, lauryl lactate], the “Amount in the AI patch” value (40° C.) was 9.20 wt % and the “Amount in the AI patch” value (room temp) was 9.10 wt %.
